Consider 19 compounds from patent US10562912B2 (C&C Research Laboratories, priority 2013, dated 2020).

What all share (format): cell-based
The target of one test is T1, STAT3 (Homo sapiens, UniProt P40763).
T1 construct: plasmid pSTAT3-TA-luc), which contains a stably operating STAT3 promoter; endogenous in cells
Briefly: STAT3 reporter gene assay (luciferase), LNCaP stable cell line (pSTAT3-TA-luc), IL-6 stimulation. In outline: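 Cytotoxicity was run on a duplicate plate with CellTiter-Glo, while the other plate gave luciferase read-outs from lysed LNCaP pSTAT3-TA-luc reporter cells. Cells were treated with graded compound concentrations plus IL-6 (10 ng/mL final) for 24–48 h in 3% DCC-FBS medium. Unstimulated and stimulated wells served as negative and positive controls.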
(A reporter such as luciferase makes a cellular process visible.)

For another test, the system named is LNCaP. The experiment in a line: Cell growth inhibition assay, prostate cancer cell line LNCaP (medium with 10 ng/mL IL-6). Conditions: Homo sapiens, medium supplemented with 10 ng/mL of IL-6, 10,000 cells/well.
A further test concerns MDA-MB-231. The experiment in a line: Cell growth inhibition assay, breast cancer cell line MDA-MB-231. Conditions: Homo sapiens; MDA-MB-231 breast cancer cell line, 5,000 cells/well. As to the method:
The inhibitory effects of the compounds of the present invention against the growth of cancer cells were evaluated as shown below. The cancer cell lines including stomach cancer cell line (AGS), breast cancer cell lines (MDA-MB-231, MDA-MB-468, and BT-549), prostate cancer cell lines (LNCaP and DU-145), colon cancer cell line (HCT116), ovarian cancer cell line (SW626), liver cancer cell line (Hep3B), kidney cancer cell line (ACHN), lung cancer cell line (NCI-H23) and blood cancer cell lines (HEL92.1.7 and U266) were cultured under the protocol provided by each supplier. A medium supplemented with 10 ng/mL of IL-6 was used for LNCaP, a prostate cancer cell line, when treated with a drug. Each type of cells to be used in experiments were sub-cultured in a 96-well plate by counting the exact number of cells using Tali™ Image-based Cytometer (Life Technologies). In a 96-well plate, AGS, HCT116, and DU-145 were employed with 3,000 cells/well; NCI-H23, SW626, Hep3B, ACHN, BT-549, MDA-MB-231, HEL92.1.7, and U266 were employed with 5,000 cells/well; and LNCaP and MDA-MB-468 were employed with 10,000 cells/well. The cells were treated with the compounds listed in Examples which were diluted in various concentrations. Upon completion of the compounds treatment, AGS, HCT116, SW626, DU145, NCI-H23, Hep3B, ACHN, BT-549, LNCaP, HEL92.1.7, and U266 cells were cultured at 37° C. under 5% CO2 for from 72 to 96 hours, and MDA-MB-231 and MDA-MB-468 cells were cultured at 37° C. in air for from 72 to 96 hours. Subsequently, the cells were observed under microscope and drug precipitation and particular findings were investigated and recorded. And then, the 96-well plate was placed at room temperature for 30 minutes, added with 20 μL/well of CellTiter-Glo solution (Cat No. G7573, Promega) and shaken for 10 minutes, followed by being subjected to the measurement using PHERAstar™ microplate reader (BMG LABTECH) according to the supplier's general luminometer protocol. Wells where only culture liquid added without cell plating were used as a negative control, whereas wells where culture liquid containing 0.1% DMSO instead of the compounds listed in Examples were used as a positive control.

Broadly, the IC50 is the midpoint of a concentration-inhibition curve.

T1 sequence (P40763 whole entry): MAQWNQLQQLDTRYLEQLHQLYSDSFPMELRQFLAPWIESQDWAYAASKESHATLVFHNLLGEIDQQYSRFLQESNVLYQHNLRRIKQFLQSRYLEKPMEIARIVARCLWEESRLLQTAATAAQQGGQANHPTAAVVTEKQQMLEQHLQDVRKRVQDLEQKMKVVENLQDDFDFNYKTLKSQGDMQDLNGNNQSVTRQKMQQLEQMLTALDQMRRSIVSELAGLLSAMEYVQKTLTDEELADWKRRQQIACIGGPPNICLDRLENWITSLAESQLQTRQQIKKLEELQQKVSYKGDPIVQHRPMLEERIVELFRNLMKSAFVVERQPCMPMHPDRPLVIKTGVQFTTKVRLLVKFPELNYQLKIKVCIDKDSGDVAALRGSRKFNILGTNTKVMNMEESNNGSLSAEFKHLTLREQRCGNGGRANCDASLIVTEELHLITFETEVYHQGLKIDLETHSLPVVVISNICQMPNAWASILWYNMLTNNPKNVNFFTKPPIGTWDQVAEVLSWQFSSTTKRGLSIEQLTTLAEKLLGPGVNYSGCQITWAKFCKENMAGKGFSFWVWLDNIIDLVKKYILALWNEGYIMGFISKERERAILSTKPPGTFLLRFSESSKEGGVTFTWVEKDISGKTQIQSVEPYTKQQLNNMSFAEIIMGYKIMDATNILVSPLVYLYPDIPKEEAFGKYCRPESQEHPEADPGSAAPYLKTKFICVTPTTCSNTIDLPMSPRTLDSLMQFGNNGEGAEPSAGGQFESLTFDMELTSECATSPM

As for `COc1cc(OC(F)(F)F)cc(C(C)c2cccc(NC(=O)c3cc4ccc(NS(C)(=O)=O)cc4[nH]3)c2)c1` (stereo not drawn) [Example 10, N-(3-(1-(3-methoxy-5-(trifluoromethoxy)phenyl)ethyl)phenyl)-6-(methylsulfonamido)-1H-indole-2-carboxamide], the figures for the IC50 against STAT3, in the test on LNCaP and in the test with MDA-MB-231 were 0.43 µM, 1.7 µM and 0.18 µM, respectively.
For `CC(C)(c1cccc(NC(=O)c2cc3ccc(NS(C)(=O)=O)cc3[nH]2)c1)c1ccc(F)cc1F` [Example 11, N-(3-(2-(2,4-difluorophenyl)propan-2-yl)phenyl)-6-(methylsulfonamido)-1H-indole-2-carboxamide], the 50% inhibitory concentration (IC50) is 0.2 µM on STAT3, 1.8 µM in the test with LNCaP and 0.06 µM in the test on MDA-MB-231.
Regarding `COc1cccc(C(C)(C)c2cccc(NC(=O)c3cc4ccc(NS(C)(=O)=O)cc4[nH]3)c2)c1` [Example 12, N-(3-(2-(3-methoxyphenyl)propan-2-yl)phenyl)-6-(methylsulfonamido)-1H-indole-2-carboxamide], the results for the half-maximal inhibitory concentration (IC50) against STAT3, in the test on LNCaP and in the test with MDA-MB-231 were 0.26 µM, 1.4 µM and 0.034 µM, respectively.
Turning to `COc1cc(NC(=O)c2cc3ccc(NS(C)(=O)=O)cc3[nH]2)cc(C(C)(C)c2cc(OC)cc(OC(F)(F)F)c2)c1` [Example 13, N-(3-methoxy-5-(2-(3-methoxy-5-(trifluoromethoxy)phenyl)propan-2-yl)phenyl)-6-(methylsulfonamido)-1H-indole-2-carboxamide], the IC50 against STAT3 was found to be 0.22 µM; in the test with LNCaP, 0.48 µM; in the test on MDA-MB-231, 0.03 µM.
The matching figures for `CC(C)(c1ccc(F)cc1)c1cc(Br)cc(NC(=O)c2cc3ccc(NS(C)(=O)=O)cc3[nH]2)c1` [Example 14, N-(3-bromo-5-(2-(4-fluorophenyl)propan-2-yl)phenyl)-6-(methylsulfonamido)-1H-indole-2-carboxamide]: 0.13 µM, 0.55 µM and 0.062 µM.
The matching figures for `CC(C)(c1ccc(F)cc1)c1cc(NC(=O)c2cc3ccc(NS(C)(=O)=O)cc3[nH]2)cc(OC(F)F)c1` [Example 17, N-(3-(difluoromethoxy)-5-(2-(4-fluorophenyl)propan-2-yl)phenyl)-6-(methylsulfonamido)-1H-indole-2-carboxamide]: 0.14 µM, 0.92 µM and 0.19 µM.
Consider `CC(C)(c1cc(Br)cc(NC(=O)c2cc3ccc(NS(C)(=O)=O)cc3[nH]2)c1)c1cccc(OCC(N)=O)c1` [Example 18, N-(3-(2-(3-(2-amino-2-oxoethoxy)phenyl)propan-2-yl)-5-bromophenyl)-6-(methylsulfonamido)-1H-indole-2-carboxamide], for which the 50% inhibitory concentration (IC50) on STAT3 was 5.4 µM; with LNCaP, 9.6 µM; in the test on MDA-MB-231, 8.7 µM.
The matching figures for `CC(C)(c1cc(Br)cc(NC(=O)c2cc3ccc(NS(C)(=O)=O)cc3[nH]2)c1)c1cccc(OC(F)F)c1` [Example 20, N-(3-bromo-5-(2-(3-(difluoromethoxy)phenyl)propan-2-yl)phenyl)-6-(methylsulfonamido)-1H-indole-2-carboxamide]: 0.29 µM, 1.1 µM and 0.15 µM.
Turning to `CC(C)(c1cc(Br)cc(NC(=O)c2cc3ccc(NS(C)(=O)=O)cc3[nH]2)c1)c1cc(OC(F)(F)F)ccc1F` [Example 23, N-(3-bromo-5-(2-(2-fluoro-5-(trifluoromethoxy)phenyl)propan-2-yl)phenyl)-6-(methylsulfonamido)-1H-indole-2-carboxamide], the values for the IC50 on STAT3, in the test with LNCaP and in the test with MDA-MB-231 were 0.045 µM, 0.17 µM and 0.028 µM, respectively.
`CC(C)(c1ccc(F)cc1)c1cccc(NC(=O)c2cc3cc(OC(F)(F)F)ccc3[nH]2)c1` [Example 25, N-(3-(2-(4-fluorophenyl)propan-2-yl)phenyl)-5-(trifluoromethoxy)-1H-indole-2-carboxamide]: the IC50 at STAT3 was 3.3 µM; in the test on LNCaP it was 4.2 µM; in the test with MDA-MB-231, 3.2 µM.
For the compound `CC(C)(c1ccc(F)cc1)c1cccc(NC(=O)c2cc3cc(NS(C)(=O)=O)ccc3s2)c1` [Example 26, N-(3-(2-(4-fluorophenyl)propan-2-yl)phenyl)-5-(methylsulfonamido)benzo[b]thiophene-2-carboxamide], the IC50 at STAT3 was determined as 0.059 µM; in the test with LNCaP, 0.36 µM; with MDA-MB-231 it was 0.008 µM.
As for `CC(C)(c1cccc(NC(=O)c2cc3cc(NS(C)(=O)=O)ccc3s2)c1)c1ccc(F)cc1F` [Example 27, N-(3-(2-(2,4-difluorophenyl)propan-2-yl)phenyl)-5-(methylsulfonamido)benzo[b]thiophene-2-carboxamide], the IC50 on STAT3 turned out to be 0.08 µM; in the test on LNCaP, 0.67 µM; in the test with MDA-MB-231, 0.033 µM.
The matching figures for `CC(C)(c1ccc(F)cc1)c1cccc(NC(=O)c2cc3cc(NS(C)(=O)=O)ccc3o2)c1` [Example 28, N-(3-(2-(4-fluorophenyl)propan-2-yl)phenyl)-5-(methylsulfonamido)benzofuran-2-carboxamide]: 0.61 µM, 4.7 µM and 1 µM.
As to `CC(C)(c1cccc(NC(=O)c2cc3cc(NS(C)(=O)=O)ccc3o2)c1)c1ccc(F)cc1F` [Example 29, N-(3-(2-(2,4-difluorophenyl)propan-2-yl)phenyl)-5-(methylsulfonamido)benzofuran-2-carboxamide], the IC50 was 0.53 µM on STAT3, 3.8 µM in the test on LNCaP and 0.47 µM in the test with MDA-MB-231.
As for `CC(C)(c1ccc(F)cc1)c1cccc(NC(=O)c2cc3ccc(NS(C)(=O)=O)cc3s2)c1` [Example 30, N-(3-(2-(4-fluorophenyl)propan-2-yl)phenyl)-6-(methylsulfonamido)benzo[b]thiophene-2-carboxamide], the IC50 worked out at 0.43 µM against STAT3, 2.9 µM in the test with LNCaP and 0.37 µM with MDA-MB-231.
With `CC(C)(c1cccc(NC(=O)c2cc3cc(NS(C)(=O)=O)ccc3s2)c1)c1ccccc1F` [Example 31, N-(3-(2-(2-fluorophenyl)propan-2-yl)phenyl)-5-(methylsulfonamido)benzo[b]thiophene-2-carboxamide], the 50% inhibitory concentration (IC50) came out at 0.19 µM on STAT3, 0.49 µM in the test on LNCaP and 0.026 µM in the test on MDA-MB-231.
The matching figures for `CC(C)(c1cccc(NC(=O)c2cc3cc(NS(C)(=O)=O)ccc3s2)c1)c1cccc(OC(F)(F)F)c1` [Example 37, 5-(methylsulfonamido)-N-(3-(2-(3-(trifluoromethoxy)phenyl)propan-2-yl)phenyl)benzo[b]thiophene-2-carboxamide]: 0.046 µM, 0.39 µM and 0.016 µM.
`COc1cccc(C(C)(C)c2cccc(NC(=O)c3cc4cc(NS(C)(=O)=O)ccc4s3)c2)c1` [Example 38, N-(3-(2-(3-methoxyphenyl)propan-2-yl)phenyl)-5-(methylsulfonamido)benzo[b]thiophene-2-carboxamide]: the IC50 against STAT3 was determined as 0.1 µM; in the test with LNCaP it was 0.8 µM; with MDA-MB-231, 0.049 µM.
Turning to `CC(C)(c1ccc(F)cc1)c1cc(NC(=O)c2cc3cc(NS(C)(=O)=O)ccc3s2)cc(OC(F)F)c1` [Example 39, N-(3-(difluoromethoxy)-5-(2-(4-fluorophenyl)propan-2-yl)phenyl)-5-(methylsulfonamido)benzo[b]thiophene-2-carboxamide], the 50% inhibitory concentration (IC50) on STAT3 was 0.048 µM; with LNCaP it was 0.22 µM; with MDA-MB-231, 0.05 µM.
